First: COc1ccc(NC(=O)C(=O)O)cc1
Second: COc1ccc(CCC(=O)NN)cc1
The melting point of the first is higher: 206 to 208 °C for the first, 129 to 131 °C for the second.

First: COc1ccc(C(=O)O)cc1S(=O)(=O)N1CCOCC1
Second: CCN(CC)S(=O)(=O)c1cc(C(=O)O)ccc1C
The melting point of the first is higher: 218 to 220 °C for the first, 142 to 144 °C for the second.

First: NS(=O)(=O)c1cccc2cccnc12
Second: O=S(=O)(Nc1nccs1)c1ccccc1
The melting point of the first is higher: 183 to 185 °C for the first, 169 to 171 °C for the second.

Compared with CC(C)c1cccc(OCC(=O)O)c1, Cc1ccc(OCCCC(=O)O)cc1C is higher in melting point: 65 to 67 °C for the first, 90 to 92 °C for the second.

First: Cc1ccccc1C1(C(=O)O)CCCCC1
Second: CCC1=C(C(=O)O)Cc2ccccc2O1
The melting point of the first is lower: 162 to 164 °C for the first, 223 to 225 °C for the second.

Compared with CCCn1c(C)c(C(=O)OCC)c2cc(O)ccc21, CCCn1c(N)nc2ccccc21 is lower in melting point: 179 to 181 °C for the first, 114 to 116 °C for the second.

First: CS(=O)(=O)c1ccc(Cl)s1
Second: CS(=O)(=O)c1ccc(C#N)cc1N
The melting point of the first is lower: 69 to 71 °C for the first, 150 to 152 °C for the second.

First: Cc1cccc(I)c1C(=O)O
Second: COc1cccc(OC)c1CC(=O)O
The melting point of the first is lower: 116 to 118 °C for the first, 149 to 151 °C for the second.

First: CCC1(C(=O)O)CCN(C(=O)OC(C)(C)C)C1 (stereo not drawn)
Second: CCc1c(C(=O)O)[nH]c(C)c1C(C)=O
The melting point of the first is lower: 94 to 96 °C for the first, 202 to 204 °C for the second.

First: Cc1cc(O)cc(C(C)C)c1
Second: Cc1cc(Br)c(C)c(S(=O)(=O)Cl)c1
The melting point of the first is lower: 49 to 51 °C for the first, 163 to 165 °C for the second.

First: O=C(O)c1ccccc1C(=O)Nc1ccc(-c2ccccc2)cc1
Second: O=C(O)c1nc(-c2cccs2)n(-c2ccccc2)n1
The melting point of the first is higher: 292 to 294 °C for the first, 199 to 201 °C for the second.

Compared with O=C(O)c1cc(-c2ccco2)nc2onc(-c3ccco3)c12, COc1ccc(C(=O)c2ccco2)cc1 is lower in melting point: 269 to 271 °C for the first, 62 to 64 °C for the second.

Nc1nc(-c2ccc(Cl)cc2)n[nH]1 and COc1ccc(-c2cc(C(=O)NN)[nH]n2)cc1 cannot be ordered by melting point: 219 to 221 °C for the first, 205 to 220 °C for the second.

First: O=C(O)c1csc(-c2cccc3ccccc23)n1
Second: Nc1nnc(-c2cccc3ccccc23)o1
The melting point of the first is lower: 144 to 146 °C for the first, 184 to 186 °C for the second.

Compared with O=C(CBr)CS(=O)(=O)c1ccccc1, NNS(=O)(=O)CCc1ccccc1 is lower in melting point: 96 to 98 °C for the first, 62 to 64 °C for the second.

First: Cc1cnc(Cl)cc1O
Second: OCc1nccc(Cl)c1Cl
The melting point of the first is higher: 173 to 175 °C for the first, 59 to 61 °C for the second.

First: O=C(O)c1cc[nH]c1
Second: CN(C)CCc1ccc(C(=O)O)cc1
The melting point of the first is lower: 129 to 131 °C for the first, 163 to 165 °C for the second.

First: Cc1nn(C)c2nc(Cl)c(C=O)cc12
Second: Cc1cc(Cl)c2cccc([N+](=O)[O-])c2n1
The melting point of the first is higher: 182 to 184 °C for the first, 109 to 111 °C for the second.

First: NC(=S)c1cc(Br)cs1
Second: COc1ccc(Br)cc1C(N)=S
The melting point of the first is higher: 199 to 201 °C for the first, 143 to 145 °C for the second.

First: Cc1[nH]c2ccccc2c1C(=O)C(C)Cl (stereo not drawn)
Second: COC(=O)C(Cc1c[nH]c2ccccc12)NC(=O)CCl (stereo not drawn)
The melting point of the first is higher: 133 to 135 °C for the first, 130 to 132 °C for the second.

First: O=Cc1ccc(Br)nc1
Second: O=Cc1cnc2ccccn12
The melting point of the first is lower: 104 to 110 °C for the first, 118 to 120 °C for the second.

First: CC(C)S(=O)(=O)c1ccc(Cl)c(C(=O)O)c1
Second: C=CCN(c1ccccc1Cl)S(=O)(=O)c1cccc(C(=O)O)c1
The melting point of the first is higher: 129 to 131 °C for the first, 103 to 105 °C for the second.

First: Nc1c([N+](=O)[O-])cc(F)c(F)c1Br
Second: O=C1CCCC1Cc1ccccc1[N+](=O)[O-] (stereo not drawn)
The melting point of the first is higher: 104 to 106 °C for the first, 38 to 40 °C for the second.

First: O=C(O)C1CC(=O)N(c2ccc3c(c2)OCO3)C1 (stereo not drawn)
Second: CC(C)c1ccc(N2CCC(C(=O)O)C2=O)cc1 (stereo not drawn)
The melting point of the first is higher: 172 to 174 °C for the first, 129 to 131 °C for the second.

First: COc1ccc(Cn2ncc(C)c2N)cc1OC
Second: COc1ccc(C(=O)C(F)(F)F)cc1OC
The melting point of the first is higher: 98 to 100 °C for the first, 77 to 79 °C for the second.

First: Cc1nc(CCCC(=O)O)cs1
Second: O=C(O)Cc1cn2ccsc2n1
The melting point of the first is lower: 66 to 68 °C for the first, 180 to 184 °C for the second.

First: O=[N+]([O-])c1ccc(CCS(=O)(=O)Cl)cc1
Second: CC(Sc1ccc([N+](=O)[O-])cc1)C(=O)O (stereo not drawn)
The melting point of the first is lower: 89 to 91 °C for the first, 114 to 116 °C for the second.

Compared with OC1CCN(c2nncc3ccccc23)CC1, O=C(O)C1CCN(c2ccc(Br)cn2)CC1 is higher in melting point: 135 to 137 °C for the first, 213 to 215 °C for the second.

Compared with COc1ccc(OC)c(-c2cc(C(=O)O)no2)c1, O=C(O)c1cc(Cl)c2cc(Cl)ccc2n1 is higher in melting point: 192 to 194 °C for the first, 194 to 196 °C for the second.

First: Nc1ccc(Cl)cc1C(=O)c1ccc[nH]1
Second: Nc1nc(-c2ccccc2Cl)cs1
The melting point of the first is higher: 149 to 151 °C for the first, 142 to 144 °C for the second.

First: CC(NC(=O)c1ccc(Br)s1)C(=O)O (stereo not drawn)
Second: O=C(O)/C=C/c1ccc(Br)s1
The melting point of the first is lower: 135 to 137 °C for the first, 209 to 211 °C for the second.

Compared with CC(Br)C(=O)c1ccc2c(c1)CCC(=O)N2 (stereo not drawn), O=C(O)c1ccc2c(=O)n3c(nc2c1)CCC3 is higher in melting point: 193 to 195 °C for the first, 354 to 356 °C for the second.

First: OCc1cnc(N2CCOCC2)s1
Second: CCOC(=O)c1ccc(S(=O)(=O)N2CCCC2C(=O)O)o1 (stereo not drawn)
The melting point of the first is lower: 101 to 103 °C for the first, 124 to 126 °C for the second.

First: Cc1nnc(CCl)o1
Second: Cn1c(N)nnc1S
The melting point of the first is lower: 32 to 40 °C for the first, 278 to 280 °C for the second.

First: O=C(O)CS(=O)(=O)CC(=O)Nc1cccc(Br)c1
Second: CS(=O)(=O)Nc1cc(Br)ccc1F
The melting point of the first is higher: 165 to 167 °C for the first, 143 to 145 °C for the second.

Compared with CC1CN(c2ccccc2N)CC(C)O1 (stereo not drawn), Cc1ncc(-c2ccccc2)cc1N is higher in melting point: 83 to 85 °C for the first, 139 to 141 °C for the second.

Compared with CC(C)(C)C(=O)C(Cl)Cl, CCn1nc(C(C)C)cc1C(=O)O is higher in melting point: 50 to 52 °C for the first, 115 to 117 °C for the second.

Compared with Nc1cccc(Cl)c1-n1cncn1, Sc1nc(-c2ccccc2Cl)no1 is lower in melting point: 122 to 124 °C for the first, 100 to 102 °C for the second.

First: CCCCC(NC(N)=O)C(=O)O (stereo not drawn)
Second: CN(CC(=O)NC1CC1)C(=O)CCl
The melting point of the first is higher: 166 to 168 °C for the first, 113 to 115 °C for the second.

Compared with c1ccc(NC2CCNC2)cc1 (stereo not drawn), COc1cc2c(cc1OC)C(c1ccccc1)NCC2 (stereo not drawn) is higher in melting point: 77 to 79 °C for the first, 111 to 113 °C for the second.

First: Cc1cccc(NS(=O)(=O)c2ccc(C)c(N)c2)c1
Second: Cc1nc(-c2cccc(N)c2)[nH]c1C
The melting point of the first is lower: 95 to 97 °C for the first, 235 to 237 °C for the second.

Compared with Cc1cc(C2(C)NC(=O)NC2=O)c(C)o1 (stereo not drawn), NS(=O)(=O)c1ccc2c(c1)C(=O)C(=O)N2 is higher in melting point: 144 to 146 °C for the first, 258 to 260 °C for the second.

Compared with NC(CC(=O)O)c1cnn(-c2ccccc2)c1 (stereo not drawn), O=C(O)CCn1cnc2ccccc21 is lower in melting point: 219 to 221 °C for the first, 106 to 108 °C for the second.

Compared with O=C(CCl)N1CC=C(c2c[nH]c3ccccc23)CC1, O=Cc1c(OCC(=O)O)ccc2ccccc12 is higher in melting point: 172 to 174 °C for the first, 174 to 176 °C for the second.

First: CC(C)(C)Sc1ccc(C#N)cn1
Second: Cn1ccnc1SCc1ccccc1[N+](=O)[O-]
The melting point of the first is lower: 69 to 71 °C for the first, 86 to 88 °C for the second.

Compared with COc1ccccc1C(O)c1ccccn1 (stereo not drawn), CC(=O)c1ccc(OCc2nccn2C)cc1 is higher in melting point: 57 to 59 °C for the first, 106 to 108 °C for the second.

Compared with Cc1cccn2c(=O)cc(CCl)nc12, Cc1sc(N)nc1-c1cccc(Cl)c1 is lower in melting point: 110 to 112 °C for the first, 90 to 94 °C for the second.

First: Cc1[nH]ncc1S(=O)(=O)Cl
Second: Cc1ccc(CN2C(=O)CCC2C(=O)O)cc1 (stereo not drawn)
The melting point of the first is lower: 95 to 97 °C for the first, 128 to 130 °C for the second.

First: N=C(N)NN=Cc1ccccc1
Second: C=CC(=O)NCc1ccc(C(=O)O)cc1
The melting point of the first is lower: 179 to 181 °C for the first, 197 to 199 °C for the second.

Compared with N#Cc1cc2c(nc1Cl)CCC2, NC(=O)c1c(N)sc2c1CCC2 is higher in melting point: 126 to 128 °C for the first, 158 to 160 °C for the second.

Compared with Nc1nonc1-c1ccc(Cl)cc1Cl, Cc1ccc(N)c(OCCN(C)C)c1 is lower in melting point: 105 to 107 °C for the first, 51 to 53 °C for the second.

CCc1cccc2c(C3CCNCC3)c[nH]c12 gave a melting point of 183 to 185 °C.
